Experimental findings from US20230265098A1, “ALKYNE QUINAZOLINE DERIVATIVES AS INHIBITORS OF ERBB2” (EnLiven Therapeutics, Inc., priority 2020, published 2023) are described below.

In general, IC50 refers to the concentration at which inhibition is half-maximal.

Structures can show the parent of a compound that is named as a salt. Bounds are passed on as bounds.

Test [1] addresses T1, phosphorylated ERBB2 (pERBB2) (Homo sapiens, UniProt P04626).
T1 construct: endogenous in cells; host or cells: BT-474
As to the kind of experiment: Detection of phosphorylated ERBB2 (pERBB2) by ELISA in BT-474 cells. The class given is cell-based. Particulars: four hours incubation with compound, OD 450 nm. As to the method:
BT-474 cells were seeded into a 96-well at 2.0*10^4 cells/100 μl/well.
Compounds were dissolved and serially diluted in DMSO. The compounds were then were added, mixed, and incubated for four hours at 37° C., 5% CO2. Compounds were added using four-fold dilutions at final concentrations ranging from 10 μM to 0.01 nM.
Following the four hour incubation with compounds, cell lysates were prepared. Plates were centrifuged for 5 min at 3000 RPM, and supernatant was removed from each well. Cells were washed 3 times by resuspension in 150 μl PBS, followed by centrifugation and removal of the supernatant, as above. […] Cells were incubated with lysis buffer for 1 hour at 4° C., and then stored at −80° C.
Enzyme-linked immunosorbent assays (ELISA) were performed to measure phosphorylated ERBB2 levels. […] The next day, plates were washed with PBS+0.05% Tween20 (PBST). 150 μl of 5% BSA blocking solution was added for 1 hour at room temperature, with shaking. Plates were washed with PBST. Cell lysates were thawed and 100 μl of lysate was added to the ELISA plate. The plates were incubated for 2 hours at room temperature, with shaking. […] Plates were incubated for 1 hour at room temperature, with shaking. Plates were then washed with PBST, and 100 μl TMB substrate solution (R&D Systems, cat #DY999) was added. Plate were incubated in the dark for 20 minutes at room temperature. 50 μl of Stop solution (R&D Systems, cat #DY994) (50 μl) was added to each well and mixed.
Optical density at 450 nm was read on an EnSpire plate reader (Perkin Elmer). The remaining kinase activity by calculated using the following formula: % Relative activity=100×(A450sample−A450LC)/(A450HC−A450LC). The low and high control values (“LC” and “HC”) were generated from lysate from wells without cells or with cells treated with 0.1% DMSO, respectively.
In general terms: An ELISA detects its analyte on a solid surface through an enzyme-linked reagent.

Test [2] has as its target T2, phosphorylated EGFR (pEGFR) (Homo sapiens, UniProt P00533).
T2 construct: endogenous in cells; host or cells: A431
The test can be described thus: Detection of phosphorylated EGFR (pEGFR) in EGF-stimulated A431 cells (AlphaLISA). The class given is cell-based. Particulars: A431 cells (10% FBS), 4 hours with compound, then EGF 30 ng/mL for 10 minutes. The protocol: Enzyme-linked immunosorbent assays (ELISA) were performed to measure phosphorylated EGFR levels using A431 cells (10% FBS). A431 (1.0*10^4 cells/40 μl/well) cells were seeded in 384 well. Compounds were dissolved in DMSO, serially diluted in DMSO and then were added, mixed, and incubated for 4 hours at 37° C., 5% CO2. Following the 4-hours incubation, cells were stimulated for 10 minutes with EGF (Invitrogen, cat #PHG0311) at a final concentration of 30 ng/mL in the incubator. The media was aspirated and cells were lysed in 10 μL lysis buffer with protease and phosphatase inhibitors (PerkinElmer, cat #ALSU-PEGFR-A50K). The plates were placed on a shaker for 5 minutes and then incubated for 30 min at 4° C. for complete lysis. The lysate was transferred to an Optiplate (Perkin Elmer, cat #6007290).
Acceptor mix (PerkinElmer, cat #ALSU-PEGFR-A50K) was prepared just before use and 5 μL was dispensed to all the wells, followed by a 1.5-2 h incubation at room temperature in dark. The donor mix (PerkinElmer, cat #ALSU-PEGFR-A50K) was prepared under low light conditions prior to use and […] of donor mix was added to all the wells under subdued lighting or green filters. The plates were placed on a shaker for 5 min, sealed, and incubated overnight at room temperature in dark. Plates were read on the Envision (PerkinElmer) using standard AlphaLISA settings.
The percentage of inhibition on EGFR phosphorylation was calculated following equation: % Inhibition=100×(LumHC−LumSample)/(LumHC−LumLC). The low and high controls (LC/HC) are generated from lysate from wells with cells treated with DMSO or […] Staurosporine (BioAustralis, cat #BIA-S1086), […]. IC50 values were calculated by fitting the Curve using XLfit (v5.3.1.3), equation 201: Y=Bottom+(Top−Bottom)/(1+10^((LogIC50−X)*HillSlope)).
On the technique in general: In Alpha technology, singlet oxygen from a donor bead excites a nearby acceptor bead.

For test [3], the target named is T3, Ba/F3 ERBB2 A775_G776insYVMA (Homo sapiens, UniProt P04626, DUP772-775, cells depend on it).
T3 construct: Ba/F3 cell lines were engineered to express human ERBB2 or EGFR kinases, rendering the cells IL-3 independent
The test can be described thus: Cell viability assay (CellTiter Glo). The class given is cell-based, mouse. Particulars: 72 hours; 300 cells per well, 384-well plates (Table B5); read-out: Cell Line: Ba/F3 ERBB2 A775 G776ins YVMA IC50. As to the method: Cells were treated with compounds, and cell viability was measured as a metric of kinase inhibition.
The Ba/F3 cell line is IL-3-dependent mouse cell line derived from the C3H mouse strain. Ba/F3 cell lines were engineered to express human ERBB2 or EGFR kinases, rendering the cells IL-3 independent. The lines were generated via retroviral transduction utilizing a Moloney murine leukemia virus (MMLV) promoter, and constructs are stably integrated into the cell genome.
Similarly, Ba/F3 cell lines engineered to express EGFR, ERBB2, or ERBB2 mutants were grown, harvested, counted and seeded at 3000 cells per well in 96-well plates for the data sets shown in Tables B3-B4, and seeded at 300 cells per well in 384-well plates for the data set shown in Table B5. A subset of wells contained media only (low control, “LC”).
Table B2 provides the growth media and number of cells seeded per well for the each cell line.
Compounds were dissolved in DMSO and serially diluted. Serially-diluted compound or a DMSO only control (high control, “HC”) was added to the plated cells in each well. […] The final proportion of DMSO never exceeded 0.1%.
Plates were placed in a 37° C., 5% CO2 incubator for 72 hours. Plates were then removed from the incubator and equilibrated for 15 minutes at room temperature. 40 IA of CellTiter Glo reagent (Promega) was added to measure the relative level of metabolically active cells by quantifying intracellular ATP concentrations. Plates were incubated for 30 minutes at room temperature, and luminescence was measured. Percent viability was normalized to a vehicle control only using the following formula: % viability=100×(LumSample−LumLC) (LumHC−LumLC). Graphical curves were fitted using a nonlinear regression model with a sigmoidal dose response.
A general note: In ATP-based viability assays light output follows the ATP content of the culture.

T1 sequence (P04626 23-1255): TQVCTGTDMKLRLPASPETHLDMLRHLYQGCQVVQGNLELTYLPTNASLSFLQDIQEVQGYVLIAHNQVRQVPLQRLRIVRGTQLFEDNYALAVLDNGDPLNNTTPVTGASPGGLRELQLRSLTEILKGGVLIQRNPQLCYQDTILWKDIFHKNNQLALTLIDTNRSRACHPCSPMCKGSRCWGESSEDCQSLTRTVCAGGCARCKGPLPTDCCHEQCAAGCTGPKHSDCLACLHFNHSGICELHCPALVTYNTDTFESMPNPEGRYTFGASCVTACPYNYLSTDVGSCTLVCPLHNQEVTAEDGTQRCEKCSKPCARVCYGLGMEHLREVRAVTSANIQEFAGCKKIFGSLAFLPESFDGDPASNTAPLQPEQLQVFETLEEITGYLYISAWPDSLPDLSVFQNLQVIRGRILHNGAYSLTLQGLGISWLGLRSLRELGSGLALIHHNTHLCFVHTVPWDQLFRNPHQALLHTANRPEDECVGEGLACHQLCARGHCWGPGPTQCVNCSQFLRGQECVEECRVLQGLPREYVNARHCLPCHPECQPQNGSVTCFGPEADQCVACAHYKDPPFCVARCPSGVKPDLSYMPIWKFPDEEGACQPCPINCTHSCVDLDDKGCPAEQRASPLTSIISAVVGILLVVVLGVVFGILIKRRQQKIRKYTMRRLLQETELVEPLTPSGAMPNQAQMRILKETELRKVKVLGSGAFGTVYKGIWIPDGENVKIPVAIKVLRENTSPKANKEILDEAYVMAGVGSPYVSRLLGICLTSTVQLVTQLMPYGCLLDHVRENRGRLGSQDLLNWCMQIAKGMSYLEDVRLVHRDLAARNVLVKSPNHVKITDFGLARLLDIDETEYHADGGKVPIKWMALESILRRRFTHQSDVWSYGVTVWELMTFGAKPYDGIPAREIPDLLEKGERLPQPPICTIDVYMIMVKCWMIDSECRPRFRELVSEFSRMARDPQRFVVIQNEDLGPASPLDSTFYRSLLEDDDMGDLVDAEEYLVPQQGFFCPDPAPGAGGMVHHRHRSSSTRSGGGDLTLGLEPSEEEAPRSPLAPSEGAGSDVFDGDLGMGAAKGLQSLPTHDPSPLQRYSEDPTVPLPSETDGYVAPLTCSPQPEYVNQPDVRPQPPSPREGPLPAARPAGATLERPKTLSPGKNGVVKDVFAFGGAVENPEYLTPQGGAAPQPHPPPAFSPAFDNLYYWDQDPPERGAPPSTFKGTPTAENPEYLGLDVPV
T3 sequence (P04626 with tags, fused parts or gaps DUP772-775): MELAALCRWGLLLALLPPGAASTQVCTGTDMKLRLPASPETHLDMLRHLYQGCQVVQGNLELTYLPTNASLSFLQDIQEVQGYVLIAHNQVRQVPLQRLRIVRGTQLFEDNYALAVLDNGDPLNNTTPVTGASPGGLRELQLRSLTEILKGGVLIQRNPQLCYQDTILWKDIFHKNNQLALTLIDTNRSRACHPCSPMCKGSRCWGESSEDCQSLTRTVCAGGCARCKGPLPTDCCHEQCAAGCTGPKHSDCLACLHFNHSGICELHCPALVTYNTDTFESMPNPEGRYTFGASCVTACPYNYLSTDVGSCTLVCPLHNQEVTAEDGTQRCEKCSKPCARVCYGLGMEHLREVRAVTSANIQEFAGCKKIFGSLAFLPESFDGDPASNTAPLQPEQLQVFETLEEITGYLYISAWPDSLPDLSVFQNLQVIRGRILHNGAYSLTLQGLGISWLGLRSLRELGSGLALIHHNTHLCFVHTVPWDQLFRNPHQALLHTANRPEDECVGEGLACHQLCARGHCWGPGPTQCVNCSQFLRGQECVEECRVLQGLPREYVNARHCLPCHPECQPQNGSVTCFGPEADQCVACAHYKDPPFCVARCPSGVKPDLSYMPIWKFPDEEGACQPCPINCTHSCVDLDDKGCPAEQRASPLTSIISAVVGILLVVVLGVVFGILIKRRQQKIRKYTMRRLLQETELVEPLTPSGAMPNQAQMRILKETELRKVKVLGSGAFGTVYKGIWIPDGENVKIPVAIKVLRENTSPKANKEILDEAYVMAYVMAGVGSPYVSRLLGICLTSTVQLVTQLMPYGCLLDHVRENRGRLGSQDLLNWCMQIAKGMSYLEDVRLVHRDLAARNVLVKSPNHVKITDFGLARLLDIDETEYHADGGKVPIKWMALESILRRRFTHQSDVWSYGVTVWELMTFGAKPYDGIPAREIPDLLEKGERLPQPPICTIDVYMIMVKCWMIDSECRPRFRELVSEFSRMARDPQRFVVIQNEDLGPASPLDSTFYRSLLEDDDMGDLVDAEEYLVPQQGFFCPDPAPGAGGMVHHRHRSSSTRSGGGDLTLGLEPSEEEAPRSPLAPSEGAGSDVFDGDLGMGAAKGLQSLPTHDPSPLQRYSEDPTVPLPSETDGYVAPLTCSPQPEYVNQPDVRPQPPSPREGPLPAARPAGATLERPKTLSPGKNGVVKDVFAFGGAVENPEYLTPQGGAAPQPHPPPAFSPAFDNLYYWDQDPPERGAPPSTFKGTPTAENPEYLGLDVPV
T2 sequence (P00533 25-1210): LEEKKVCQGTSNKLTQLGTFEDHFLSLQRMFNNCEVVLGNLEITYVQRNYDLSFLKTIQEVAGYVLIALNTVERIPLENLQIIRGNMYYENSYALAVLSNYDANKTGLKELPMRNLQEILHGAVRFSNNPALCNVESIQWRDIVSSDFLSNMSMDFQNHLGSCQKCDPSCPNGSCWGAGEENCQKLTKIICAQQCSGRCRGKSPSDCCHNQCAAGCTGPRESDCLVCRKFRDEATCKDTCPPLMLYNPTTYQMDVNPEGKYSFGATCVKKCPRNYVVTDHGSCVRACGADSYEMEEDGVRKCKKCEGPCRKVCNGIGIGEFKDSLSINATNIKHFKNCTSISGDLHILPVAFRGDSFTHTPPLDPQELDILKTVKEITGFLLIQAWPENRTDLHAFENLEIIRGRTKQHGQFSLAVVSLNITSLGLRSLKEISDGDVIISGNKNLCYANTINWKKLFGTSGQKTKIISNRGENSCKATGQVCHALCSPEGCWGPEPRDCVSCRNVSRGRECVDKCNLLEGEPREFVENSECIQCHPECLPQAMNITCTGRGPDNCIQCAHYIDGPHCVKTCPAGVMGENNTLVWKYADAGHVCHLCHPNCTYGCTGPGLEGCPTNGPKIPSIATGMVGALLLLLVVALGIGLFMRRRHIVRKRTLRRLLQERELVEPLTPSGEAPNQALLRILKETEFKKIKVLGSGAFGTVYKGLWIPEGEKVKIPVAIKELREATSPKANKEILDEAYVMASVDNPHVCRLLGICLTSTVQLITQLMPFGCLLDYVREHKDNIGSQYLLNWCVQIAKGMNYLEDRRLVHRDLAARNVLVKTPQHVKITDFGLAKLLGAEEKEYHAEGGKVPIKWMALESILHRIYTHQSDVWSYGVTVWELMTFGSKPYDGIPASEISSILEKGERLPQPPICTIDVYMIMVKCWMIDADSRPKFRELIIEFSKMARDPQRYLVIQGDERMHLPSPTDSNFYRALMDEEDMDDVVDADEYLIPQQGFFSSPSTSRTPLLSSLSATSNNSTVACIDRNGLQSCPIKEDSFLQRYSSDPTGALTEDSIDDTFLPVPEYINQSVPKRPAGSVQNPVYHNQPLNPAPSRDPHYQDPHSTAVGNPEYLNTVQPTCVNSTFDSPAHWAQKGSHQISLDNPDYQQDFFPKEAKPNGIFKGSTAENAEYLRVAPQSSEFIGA

Regarding `Cc1cc(Nc2ncnc3cc(OCCN(C)C)c(NC(=O)C#CC4CC4)cc23)ccc1Oc1ccn2ncnc2c1` [Compound 170, 3-cyclopropyl-N-{7-[2-(dimethylamino)ethoxy]-4-[(3-methyl-4-{[1,2,4]triazolo[1,5-a]pyridin-7-yloxy}phenyl)amino]quinazolin-6-yl}prop-2-ynamide hydrochloride], the figures for the IC50 in test [1] and in test [2] were 14 nM and 418 nM, respectively.

Turning to `Cc1c(Oc2ccn3ncnc3c2)ccc(Nc2ncnc3cc(OCCN(C)C)c(NC(=O)C#CC4CC4)cc23)c1F` [Compound 179, N-(4-((4-([1,2,4]triazolo[1,5-a]pyridin-7-yloxy)-2-fluoro-3-methylphenyl)amino)-7-(2-(dimethylamino)ethoxy)quinazolin-6-yl)-3-cyclopropylpropiolamide], the IC50 is 121 nM in test [1] and 2550 nM in test [2].

As for `CC#CC(=O)Nc1cc2c(Nc3ccc(Oc4ccn5ncnc5c4)c(C)c3F)ncnc2cc1OCCN(C)C` [Compound 180, N-(4-((4-([1,2,4]triazolo[1,5-a]pyridin-7-yloxy)-2-fluoro-3-methylphenyl)amino)-7-(2-(dimethylamino)ethoxy)quinazolin-6-yl)but-2-ynamide], the figures for the IC50 in test [1] and in test [2] were 23.4 nM and 1590 nM, respectively.

For the compound `Cc1cc(Nc2ncnc3cc(OCCN(C)C)c(NC(=O)C#CC4CC4)cc23)c(F)cc1Oc1ccn2ncnc2c1` [Compound 181, N-(4-(4-([1,2,4]triazolo[1,5-a]pyridin-7-yloxy)-2-fluoro-5-methylphenylamino)-7-(2-(dimethylamino)ethoxy)quinazolin-6-yl)-3-cyclopropylpropiolamide formate], the IC50 is 22.8 nM in test [1] and 971 nM in test [2].

Turning to `CC#CC(=O)Nc1cc2c(Nc3cc(C)c(Oc4ccn5ncnc5c4)cc3F)ncnc2cc1OCCN(C)C` [Compound 182, N-{7-[2-(dimethylamino)ethoxy]-4-[(2-fluoro-5-methyl-4-{[1,2,4]triazolo[1,5-a]pyridin-7-yloxy}phenyl)amino]quinazolin-6-yl}but-2-ynamide], the results for the half-maximal inhibitory concentration (IC50) in test [1] and in test [2] were 13.2 nM and 1490 nM, respectively.

Turning to `Cc1cc(Nc2ncnc3ccc(NC(=O)C#CC4(C)CC4)cc23)ccc1Oc1ccn2ncnc2c1` [Compound 185, N-{4-[(3-methyl-4-{[1,2,4]triazolo[1,5-a]pyridin-7-yloxy}phenyl)amino]quinazolin-6-yl}-3-(1-methylcyclopropyl)prop-2-ynamide], in test [3], the GI50 stood at 5.11 nM. For the same compound, the figures for the IC50 in test [1] and in test [2] were 17.3 nM and 680 nM, respectively.

For `CC#CC(=O)Nc1cc2c(Nc3ccc(Oc4ccc(C)nc4)c(C)c3)ncnc2cc1OCCN(C)C` [Compound 186, N-{7-[2-(dimethylamino)ethoxy]-4-({3-methyl-4-[(6-methylpyridin-3-yl)oxy]phenyl}amino)quinazolin-6-yl}but-2-ynamide], the half-maximal inhibitory concentration (IC50) in test [1] came to 16.1 nM; in test [2] it was 74.5 nM.

As for `CNCCOc1cc2ncnc(Nc3ccc(Oc4ccn5ncnc5c4)c(C)c3)c2cc1NC(=O)C#CC1CC1` [Compound 187, 3-cyclopropyl-N-{4-[(3-methyl-4-{[1,2,4]triazolo[1,5-a]pyridin-7-yloxy}phenyl)amino]-7-[2-(methylamino)ethoxy]quinazolin-6-yl}prop-2-ynamide], the GI50 in test [3] is 19.6 nM. In addition, the IC50 is 30.5 nM in test [1] and 434 nM in test [2].

As to `Cc1cc(Nc2ncnc3ccc(NC(=O)C#CC4CC4)cc23)ccc1Oc1ccc([C@@H](F)CF)nc1` [Compound 188, (R)-3-cyclopropyl-N-(4-((4-((6-(1,2-difluoroethyl)pyridin-3-yl)oxy)-3-methylphenyl)amino)quinazolin-6-yl)propiolamide], the figures for the IC50 in test [1] and in test [2] were 78 nM and 297 nM, respectively.

For the compound `CC#CC(=O)Nc1cc2c(Nc3ccc(Cc4ccn5ncnc5c4)c(C)c3)ncnc2cc1OCCCN(C)C` [Compound 189, N-{7-[3-(dimethylamino)propoxy]-4-[(3-methyl-4-{[1,2,4]triazolo[1,5-a]pyridin-7-ylmethyl}phenyl)amino]quinazolin-6-yl}but-2-ynamide], the GI50 in test [3] was 2.47 nM. In addition, the IC50 in test [1] amounted to 1.87 nM; in test [2], 106 nM.

Regarding `Cc1cc(Nc2ncnc3cc(OCCN(C)C)c(NC(=O)C#CC4(C)CC4)cc23)ccc1Oc1ccn2ncnc2c1` [Compound 190, N-{7-[2-(dimethylamino)ethoxy]-4-[(3-methyl-4-{[1,2,4]triazolo[1,5-a]pyridin-7-yloxy}phenyl)amino]quinazolin-6-yl}-3-(1-methylcyclopropyl)prop-2-ynamide], the GI50 in test [3] amounted to 34.5 nM. Further, the IC50 in test [1] is 24.9 nM; in test [2], 1220 nM.

As to `Cc1cc(Nc2ncnc3cc(OCCN(C)C)c(NC(=O)C#CC(C)(C)C)cc23)ccc1Oc1ccn2ncnc2c1` [Compound 191, N-{7-[2-(dimethylamino)ethoxy]-4-[(3-methyl-4-{[1,2,4]triazolo[1,5-a]pyridin-7-yloxy}phenyl)amino]quinazolin-6-yl}-4,4-dimethylpent-2-ynamide], the GI50 in test [3] was 177 nM. For the same compound, the IC50 in test [1] is 93.2 nM; in test [2], greater than 10000 nM.

Turning to `CC#CC(=O)Nc1cc2c(Nc3ccc(Oc4ccn5ncnc5c4)c(C)c3)ncnc2cc1OCCN1CCCC1` [Compound 192, N-{4-[(3-methyl-4-{[1,2,4]triazolo[1,5-a]pyridin-7-yloxy}phenyl)amino]-7-[2-(pyrrolidin-1-yl)ethoxy]quinazolin-6-yl}but-2-ynamide], the GI50 in test [3] is 11 nM. Also, the IC50 in test [1] amounted to 9.51 nM; in test [2], 1350 nM.

`CC#CC(=O)Nc1cc2c(Nc3cc(Cl)c(Oc4ccn5ncnc5c4)cc3F)ncnc2cc1OCCN(C)C` [Compound 197, N-(4-((4-([1,2,4]triazolo[1,5-a]pyridin-7-yloxy)-5-chloro-2-fluorophenyl)amino)-7-(2-(dimethylamino)ethoxy)quinazolin-6-yl)but-2-ynamide]: the IC50 in test [1] was determined as 11.4 nM; in test [2] it was 555 nM.
